Source: patent publication US20100048411A1, “SUBSTRATE FOR THE GROWTH OF CULTURED CELLS IN THREE DIMENSIONS” (REINNERVATE LIMITED, priority 2006, published 2010)

Columns and labels:
Assay type in all cases: cell-based, human
[1] = system: HepG2 cells; test: SEM and TEM morphology of HepG2 cells challenged with methotrexate
Method: Cells were seeded on 2-D and 3-D surfaces in triplicate and left to settle and adhere for 24 hours. The medium was then changed and replaced with medium containing different concentrations of MTX (no MTX (vehicle alone, control), 8 μM, 31 μM, and 125 μM). Cells were subsequently incubated for 1, 3, 7 or 10 days, after which cultures were sampled and assayed for cell number/viability and levels of albumin and transglutaminase were determined.
In preparation for SEM, cells grown on 2-D or 3-D substrates were fixed in 2% paraformaldehyde and 2.5% glutaraldehyde in Sorenson's phosphate buffer for 1 hour at room temperature. Samples were then rinsed in 0.1M phosphate buffer and immersed in 1% OsO4 (aq.) solution for 1 hour, then dehydrated in 50%, 70%, 95% and 100% ethanol for 5 minutes, four times for each respective ethanol change. Samples of fixed 2-D and 3-D cultures were then cut into smaller pieces (approximately 25 mm^2), mounted on specimen holders and dried from CO2 at 38° C. at 1200 psi. The samples were then sputter coated with a 7 nm layer of chromium and examined using a Hitachi S5200 SEM.
For TEM analysis, cells grown on 3-D substrates were fixed and treated as described above for SEM. However, subsequent to dehydration and being cut into small pieces, samples were embedded in resin (Araldite CY212, Agar Scientific) for 1 hour at 37° C. and then placed into pyramidal moulds at 60° C. overnight. For the preparation of cells grown on 2-D surfaces, cultures were fixed in 2% paraformaldehyde and 2.5% glutaraldehyde in Sorenson's phosphate buffer for 1 hour at room temperature. Cells were then scrapped from tissue culture plastic and pelleted at 15,000 rpm for 10 min. Pelleted cells were subsequently rinsed in 0.1M phosphate buffer and immersed in 1% OsO4 (aq.) solution for 1 hour, then dehydrated in 50%, 70%, 95% and 100% ethanol for 5 min, for times for each respective ethanol change. The dehydrated cell pellets were then soaked in resin (Araldite CY212) for 60 min at 37° C. […]

[2] = system: HepG2 cells; test: albumin secretion of HepG2 cells challenged with methotrexate
Method: (§1) The human hepatic carcinoma cell line, HepG2, was obtained from the American Type Culture Collection (ATCC). HepG2 cells were cultured at 37° C. in 5% CO2 in growth medium (Dulbecco's modified Eagle medium (D-MEM, Gibco/BRL) supplemented with 10% (v/v) fetal calf serum (FBS, Gibco/BRL), 100 μg.mL^−1 penicillin and 10 μg.mL^−1 streptomycin (Gibco/BRL)). Cells were passaged every 5-7 days. Confluent cultures of cells were washed with PBS, detached using trypsin/EDTA solution and cell number determined using a hemocytometer. Suspensions of HepG2 cells were then seeded at equal densities either directly into wells of a standard 6-welled plate (Nunc) or into modified well-inserts mounted with the polymer and located in wells of a 6-well plate. Cultures were maintained in growth medium which was changed every 3-4 days or as required.
(§2) Cells were seeded on 2-D and 3-D surfaces in triplicate and left to settle and adhere for 24 hours. […] Cells were subsequently incubated for 1, 3, 7 or 10 days, after which cultures were sampled and assayed for cell number/viability and levels of albumin and transglutaminase were determined.
The production of albumin is often used as an indicator of hepatocyte metabolic activity. Levels of albumin were determined using a commercially available kit (Bioassay systems) based on an established method that utilizes bromocresol green which forms a coloured complex specifically with albumin that is detectable at 620 nm. Known quantities of human albumin were used to establish the standard curve. Specific levels of albumin secretion were normalized to total protein levels (as determined by a standard Bradford assay).

[3] = system: HepG2 cells; test: transglutaminase assay of HepG2 cells challenged with methotrexate
Method: as §1, §2
The leakage of this enzyme is often used as a marker for in vitro toxicity testing and its presence indicates damage to cell membranes. […] The level of transglutaminase was analysed by means of a quantitative enzymatic assay (Sigma, UK) as previously described.

[4] = system: HepG2 cells; test: MTT viable cell number of HepG2 cells challenged with methotrexate on 2-D and 3-D substrates
Method: as §1
The number of viable cells was determined using a commercially available calorimetric assay (Promega) based on Mosmann's original method for measuring cell activity involving the conversion of a tetrazolium salt into a blue formazan product detectable by a spectrophotometer (570 nm). The assay was performed according to the manufacturer's instructions on HepG2 cells cultured on 2-D and 3-D substrates for various periods under alternative growth conditions.
as §2

CN(Cc1cnc2nc(N)nc(N)c2n1)c1ccc(C(=O)N[C@@H](CCC(=O)O)C(=O)O)cc1 [MTX, methotrexate]
ultra-structure (TEM) ([1]; 2-D cultures, 8 μM MTX): areas of cellular necrosis were also evident
ultra-structure (TEM) ([1]; 2-D cultures, high levels of MTX): most cells became necrotic
ultra-structure (TEM) ([1]; 3-D culture, 125 μM MTX): the nuclear membrane had an irregular morphology
albumin secretion (metabolic activity) ([2]; cells cultured on scaffolds (3-D), 15.6 μM MTX): did begin to reduce albumin secretion
albumin secretion (metabolic activity) ([2]; cells grown in 2-D, 8 μM MTX): sensitive
albumin secretion (metabolic activity) ([2]; cells grown in 3-D, 8 μM MTX): did not significantly influence albumin secretion
transglutaminase levels ([3]; 2-D cultures, 31 μM MTX and above, versus 3-D culture): significantly higher levels of transglutaminase
transglutaminase levels ([3]; 3-D cultures, increasing concentration of MTX): did not cause a significant increase in transglutaminase levels
cell viability (MTT absorbance) ([4]; 3-D cultures, 62 μM MTX, compared to control values): significant decrease in absorbance levels
cell viability (MTT absorbance) ([4]; HepG2 monolayers (2-D), 15 μM MTX, after 24 hours): gradual increase of absorbance
cell viability (MTT absorbance) ([4]; cells on 2-D surfaces, increasing MTX concentrations): visibly reduced
cell viability (MTT absorbance) ([4]; monolayers (2-D), 7 days, 125 μM MTX): sharp decrease in absorbance levels
